# According to patent US9017963B2, “Method for detecting microorganisms” (Woundchek Laboratories (US), Inc., priority 2002, dated 2015):
# *: point of attachment. Dabsyl = label, CN(C)c1ccc(/N=N/c2ccc(S(=O)(=O)*)cc2)cc1; EDANS = O=S(=O)(O)c1cccc2c(NCCN*)cccc12
# Columns and labels:
# S. epidermidis = assay: Indolyl ester glass microfiber filter sensor, S. epidermidis; assay type: biochemical, Staphylococcus epidermidis; settings: substrates bound to glass microfiber filter; FIG. 17B
# Text: Hydrophobic interactions make use of the non-ionic packing that occurs in a polar solvent such as water and such interactions can be used in the production of biosensors for detection of pathogens. The substrates 5-bromo-4-chloro-3indolyl butyrate and 5-bromo-4-chloro-3indolyl caprylate can be spotted onto a glass microfiber filter to make a sensor. Upon spotting the filter with a small amount of Staphylococcus (aureus or epidermidis) culture medium the color of the filter will turn blue in approximately 15 minutes.
# S. pyogenes = assay: Indolyl ester glass microfiber filter sensor, S. pyogenes; assay type: biochemical, Streptococcus pyogenes; settings: substrates bound to glass microfiber filter; FIG. 17B
# lipase from S. aureus = assay: Lipase assay, S. aureus culture supernatant; assay type: biochemical, Staphylococcus aureus; settings: 20 mM Tris (pH 8.3) with 1 mM ZnSO4, 20% methanol, 20% DMSO, or 10 mM Triton X-100 vs control
# Experimental: (§1) A culture of each of the following bacterial species was grown to saturation in Brain Heart Infusion (BHI) broth at 37° C. with vigorous shaking (˜200 rpm), using methods that are standard in the art: Staphylococcus aureus; Staphylococcus epidermidis; Serratia marcescens; Streptococcus salivarius; Escherichia coli; Pseudomonas aeruginosa; and Enterococcus faecalis. After overnight growth (to saturation), a 1 mL sample of each culture was obtained, and the cells were removed from the culture supernatant by centrifugation at 12,000×g for 5 minutes. The remaining culture supernatants were stored on ice until required (less than one hour). The bacteria were assayed for the presence or absence of specific enzymes as described below. Alternatively, the bacterial cells are not separated from the culture supernatant, but rather, the assay is carried out on a sample containing the cells still in suspension in their culture broth.
# To test for the presence or absence of lipases secreted by bacteria, the lipase substrate p-nitrophenyl caprate, obtained from Sigma (Catalog No.: N-0252). This lipase substrate consists of capric acid, a ten-carbon lipid molecule, esterified with the dye para nitrophenol (detectable label) as described above. The substrate was dissolved in isopropyl alcohol at a concentration of 8 mM (2.35 mg/mL). A reaction buffer containing 20 mM Tris (pH 8.5) was also prepared.
# To perform the lipase assay, 80 μL of reaction buffer, 10 μL of culture supernatant from each bacteria species described in Example 2, and 10 μL of assay substrate were added to a well of a 96-well microplate. Each bacterial species was assayed individually, and the assays were performed in triplicate. The 96-well plate was incubated at 37° C. for 60 minutes. At 5 minute intervals during the incubation period, absorbance at 415 nm, indicating modification of the enzyme by a lipase secreted by the cells, was automatically measured using a BioRad Benchmark Microplate reader.
# However, it is known that bacterial lipases do show strong substrate specificity with regard to the chain length of the fatty acid they hydrolyze (Van Kampen et al., BBA, 1544: 229, 2001) and to the location in a lipid layer. The degree that the environment of the substrate affects the efficiency of hydrolysis depends on the particular enzyme. To test this for the lipase from S. aureus, the above-described lipase assay was performed in the presence of several detergent and solvent additives. The reaction buffer consisted of 20 mM Tris (pH 8.3) with 1 mM ZnSO4 added, plus either nothing additional (control), 20% methanol, 20% DMSO, or 10 mM Triton X-100.
# [1] = tested on: Serratia marcescens specific protease; assay: Serratia protease FRET assay, S. marcescens culture; assay type: biochemical
# Text: A Serratia marcescens specific protease was identified based on a homology search using the sequence of a known sspB protease found in the Staphylococcus species. This protease has homology to the cysteine protease precursor (sspB) protein of Staphylococcus aureus. The corresponding Serratia protease has not been previously characterized. To test for the presence of the specific protease in a bacterial culture, a short target peptide was designed. This target peptide was derived from a polypeptide substrate previously shown to be cleaved by S. aureus sspB (Chan and Foster, J. Bacteriology 180:6232-6241, 1998). This peptide was capped by a fluorescent dye molecule on one end and by an associated chromophore molecule on the other end. If the absorption band of the chromophore has sufficient overlap with the absorbance band associated with the fluorescence of the dye molecule, the observed fluorescence will be quenched. This phenomenon is known as fluorescence resonance energy transfer (FRET) and can be used to determine the distance between the FRET donor and acceptor molecules. Upon cleavage of the peptide the fluorescent indicator is released from the proximity of the quencher and the fluorescence increase is measured. Thus, the presence or absence of a protease that targets the peptide in the sample can be determined by detecting fluorescence emitted by the cleaved peptide. […]
# [2] = tested on: beta-galactosidase (other bacterial supernatants of Example 2); assay: Beta-galactosidase assay, other species; assay type: biochemical; settings: 37° C.
# Experimental: as §1
# (§2) To determine the presence or absence of bacteria in a sample, mid-log phase bacterial supernatants were obtained as described in Example 2. A substrate solution containing the labeled synthetic substrate ortho-nitrophenyl-b-D-galactopyranoside (ONPG) dissolved in 50% DMSO to a concentration of 20 mM was prepared. […] The samples were incubated at 37° C. and absorbance at 420 nm was measured hourly.
# [3] = tested on: beta-galactosidase (Streptococcus salivarius); assay: Beta-galactosidase assay, S. salivarius supernatant; assay type: biochemical; settings: 37° C.
# Experimental: as §1, §2
# [4] = tested on: autolysins (Enterococcus faecalis); assay: Autolysin assay, E. faecalis supernatant; assay type: biochemical; settings: 20° C., 7 hours
# Experimental: as §1, with “Alternatively, the bacterial cells are not separated from the culture supernatant, but rather, the assay is carried out on a sample containing the cells still in suspension in their culture broth.” left out
# (§3) To test for the presence of autolysins in bacterial cell culture supernatants, the synthetic autolysin substrate p-nitrophenyl-N-acetyl-b-D-glucosaminide (PNP-AGA), a substrate containing a dye that is detected at […] when the substrate is modified, was dissolved in 50% DMSO to a final concentration of 20 mM to form a substrate solution. Modification of this substrate can be detected by measuring the change in absorbance at 405 nm. […] The progress of modification of the labeled substrate was monitored by absorbance at 405 nm.
# [5] = tested on: other bacterial culture supernatants of Example 2; assay: Autolysin assay, other culture supernatants; assay type: biochemical; settings: other culture supernatants vs water control; 20° C., 7 hours
# Experimental: as §1, with “Alternatively, the bacterial cells are not separated from the culture supernatant, but rather, the assay is carried out on a sample containing the cells still in suspension in their culture broth.” left out
# as §3
# [6] = tested on: Serratia marcescens specific protease; assay: Biosensor: target peptide bound to Cell Debris Remover, exposed to Serratia marcescens extract; assay type: biochemical
# Text: An example of a biosensor for the detection of a Serratia marcescens (S. marcescens) specific protease, and therefore, for the detection of Serratia marcescens now follows. The Serratia marcescens specific target peptide substrate was bound to a surface with a weak positive charge, such as fibrous cellulose lightly substituted with DEAE (Cell Debris Remover, Whatman, Inc.).
# [7] = tested on: Staphylococcus aureus, Listeria monocytogenes, Pseudomonas aeruginosa, Enterococcus faecalis, Streptococcus salivarius, Escherichia coli cultures; assay: Serratia protease FRET assay, other bacterial pathogen samples; assay type: biochemical; settings: other bacterial samples vs water control; same conditions
# Experimental: The specificity of the protease for Serratia marcescens is was determined by detecting cleavage of a target polypeptide, using FRET, by the protease in a number of different bacterial pathogen samples. The bacterial pathogen samples used in this study were all taken from overnight cultures grown in brain heart […] (BHI) media at 37° C., as described herein. The bacterial pathogens chosen for this study were: Staphylococcus aureus, Listeria monocytogenes, Pseudomonas aeruginosa, Enterococcus faecalis, Streptococcus salivarius, Serratia marcescens, and Escherichia coli. The target peptide substrate used to test for the Serratia marcescens specific protease was as follows: Dabsyl-NEAIQEDQVQYE-Edans (SEQ ID NO: 2), and was prepared using standard methods known to one skilled in the art. A substrate solution containing 1 mg/mL to 5 mg/mL of target peptide substrate in 1:1 water/dimethylsulfoxide (DMSO) was prepared. The reaction buffer used was 20 mM Tris (pH 7.5) with 200 mM NaCl. […] The narrow band filters in the fluorimeter were centered at 305 nm for excitation and 485 nm for fluorescence emission readings. The samples were incubated at 37° C. and the fluorescence of each sample was measured at time points taken every 10 minutes. […]
compound,measurement,setting,value
CCCC(=O)Oc1c[nH]c2ccc(Br)c(Cl)c12 [5-bromo-4-chloro-3indolyl butyrate],detection on filter sensor (dark spot),S. epidermidis,dark spot corresponding to S. epidermidis indicates detection
same,detection on filter sensor,S. pyogenes,did not detect S. pyogenes
CCCCCCCC(=O)Oc1c[nH]c2ccc(Br)c(Cl)c12 [5-bromo-4-chloro-3indolyl caprylate],detection on filter sensor (dark spot),S. epidermidis,dark spot corresponding to S. epidermidis indicates detection
same,detection on filter sensor,S. pyogenes,did not detect S. pyogenes
C[S+](C)[O-] [DMSO],effect of additive on hydrolysis rate of p-nitrophenyl caprate,lipase from S. aureus,hydrolysis rate was found to increase
"O=C(O)CN(CCN(CC(=O)O)CC(=O)O)CC(=O)O [EDTA, ethylenediaminetetraacetic acid]",effect of EDTA on protease activity (relative fluorescence of the target peptide),"[1]; One mM EDTA added to 20 mM Tris (pH 7.5) with 200 mM NaCl, Serratia culture",No reduction in activity
"O=[N+]([O-])c1ccccc1O[C@@H]1O[C@H](CO)[C@H](O)[C@H](O)[C@H]1O [ONPG, ortho-nitrophenyl-b-D-galactopyranoside]",reaction with substrate (absorbance at 420 nm),[2],other species did not
same,reaction with substrate (absorbance at 420 nm),[3],reacted with the substrate
"CC(=O)N[C@H]1[C@H](Oc2ccc([N+](=O)[O-])cc2)O[C@H](CO)[C@@H](O)[C@@H]1O [PNP-AGA, p-nitrophenyl-N-acetyl-b-D-glucosaminide]",modification of substrate (change in absorbance at 405 nm),[4],"reacted with the substrate, giving rise to a color change"
same,modification of substrate (change in absorbance at 405 nm),[5],None of the other culture supernatants were distinguishable from the water control
CO [methanol],effect of additive on hydrolysis rate of p-nitrophenyl caprate,lipase from S. aureus,hydrolysis rate was found to increase
Dabsyl-NEAIQEDQVQYE-Edans (Dabsyl-NEAIQEDQVQYE-{EDANS}; SMILES CC[C@H](C)[C@H](NC(=O)[C@H](C)NC(=O)[C@H](CCC(=O)O)NC(=O)[C@H](CC(N)=O)NS(=O)(=O)c1ccc(/N=N/c2ccc(N(C)C)cc2)cc1)C(=O)N[C@@H](CCC(N)=O)C(=O)N[C@@H](CCC(=O)O)C(=O)N[C@@H](CC(=O)O)C(=O)N[C@@H](CCC(N)=O)C(=O)N[C@H](C(=O)N[C@@H](CCC(N)=O)C(=O)N[C@@H](Cc1ccc(O)cc1)C(=O)N[C@@H](CCC(=O)O)C(=O)NCCNc1cccc2c(S(=O)(=O)O)cccc12)C(C)C) [target peptide substrate used to test for the Serratia marcescens specific protease],fluorescence of biosensor,[6],fluorescence was readily detected
same,cleavage of target peptide substrate (relative fluorescence intensity over time),[7],"None of the other bacterial samples, including the Staphylococcus aureus sample, were distinguishable from the control"
same,cleavage of target peptide substrate (relative fluorescence intensity over time),"[1]; S. marcescens overnight culture in BHI, 20 mM Tris (pH 7.5) with 200 mM NaCl, 37° C., emission 485 nm","reacted with the substrate, giving rise to an increase in fluorescence intensity"
Triton X-100,effect of additive on hydrolysis rate of p-nitrophenyl caprate,lipase from S. aureus,hydrolysis rate was found to increase
